From US8779004B2, “Stable emulsion formulations” (Amgen, Inc., priority 2006, dated 2014)
Marks after values point to notes of the source that are not given here.

How the values were obtained:
Assay type in all cases: physicochemical
[1] = Zeta potential titration of emulsions (droplet charge vs pH); conditions: cinacalcet/1% EYP/10% SBO emulsion
Method: Panel A, titration results of 1% EYP/10% SBO in 1 mM dibasic phosphate. Panel B, titration results of cinacalcet/1% EYP/10% SBO in 1 mM dibasic phosphate. Other components of the emulsions include 10% soybean oil, 1% egg lecithin, 2.25% glycerin and water. Panel C, titration results for Compound A. Emulsion composition: SBO 10%, Lecithin 2% at pH 7. Concentration of Compound A was 5 mg/mL for formulation #1 and 1 mg/mL for formulation #2.
The zeta potential measurements were made on a Malvern Zetasizer 4 laser-scattering particle electrophoretic analyzer that measures the electrophoretic mobility and zeta potential distribution. Samples were prepared for the zeta potential titration by diluting the emulsion approximately 2500 fold in 1 mM dibasic phosphate pH 9 and titrating the solution with 100 mM phosphoric acid in 0.5 pH unit increments. […] Theoretically, the emulsions are stabilized by this charge, which prevents the droplets from coalescing. […] In contrast, the cinacalcet emulsions achieve charge neutrality in the range of pH 7-7.5.

[2] = pH and particle size of crude cinacalcet emulsions with different oils and phospholipids
Method: Table 4 illustrates the effect of different oils and phospholipids on pH and particle size of crude emulsions prepared for cinacalcet. The particle size distribution of the droplets was measured using light diffraction techniques after dilution of the emulsion in water. The particle size is represented by D(4,3) which is the volume corrected mean of the particles (units). As used herein, SBO—soybean oil (long chain triglycerides); MCT—medium chain triglycerides; STG—structured triglycerides (including PEGylated oils)
Coarse prototype emulsion formulations were prepared at a batch size of 10 mLs by an Ultraturrax T25 S1 Janke and Kunkel blade homogenizer equipped with a 10 mm rotostator, followed by sonication from a Vibracell Ultrasonicator with a titanium microtip probe. Batches at a 40 mL size were prepared in a similar manner, with the exception of the ultrasonicator having a ¾″ titanium probe tip.
Coarse prototype emulsions at a batch size of 10-40 mLs were prepared by mixing the oil with lecithin by a blade mixer at 60° C. protected by a nitrogen headspace. Cinacalcet was added and mixed well, followed by the addition of the aqueous phase containing glycerin and buffer until a homogenous mixture was made. A sonicator probe was used to further process the emulsion premix while maintaining the nitrogen headspace. Coarse emulsions prepared by sonication were centrifuged at 3K RPM to remove gross particulates on a Dupont Sorval centrifuge, and dispensed by removal of the top contents of the emulsion for evaluation.

[3] = Long-term storage stability of emulsions (assay, pH, particle size); conditions: 5 mg/mL emulsion
Method: Calcimimetics emulsions for long-term studies were prepared at 5 mg/mL drug concentration, 5% SBO, 2% egg lecithin, 2% glycerin, 20 mM TRIS buffer at pH 9. The emulsions were packed in glass vials at 20 mL each and stored inverted in stability chambers. At each time-point, 3 vials from each chamber were pulled and analyzed for the calcimimetic concentration, pH and particle size. […] The values for pH dropped over time, with greater magnitude of drop seen at higher temperature.

[4] = crude emulsion, MCT 5%, 1% Purified Egg Lecithin
[5] = crude emulsion, MCT 5%, 1% Purified Soy Lecithin
[6] = crude emulsion, MCT 5%, 2% Purified Egg Lecithin
[7] = crude emulsion, MCT 5%, % Purified Soy Lecithin
[8] = crude emulsion, MCT 10%, 1% Purified Egg Lecithin
[9] = crude emulsion, MCT 10%, 1% Purified Soy Lecithin
[10] = crude emulsion, MCT 10%, 2% Purified Egg Lecithin
[11] = crude emulsion, MCT 10%, % Purified Soy Lecithin
[12] = crude emulsion, MCT 20%, 1% Purified Egg Lecithin
[13] = crude emulsion, MCT 20%, 1% Purified Soy Lecithin
[14] = crude emulsion, MCT 20%, 2% Purified Egg Lecithin
[15] = crude emulsion, MCT 20%, % Purified Soy Lecithin
[16] = crude emulsion, SBO 5%, 1% Purified Egg Lecithin
[17] = crude emulsion, SBO 5%, 1% Purified Soy Lecithin
[18] = crude emulsion, SBO 5%, 2% Purified Egg Lecithin
[19] = crude emulsion, SBO 5%, % Purified Soy Lecithin
[20] = crude emulsion, SBO 10%, 1% Purified Egg Lecithin
[21] = crude emulsion, SBO 10%, 1% Purified Soy Lecithin
[22] = crude emulsion, SBO 10%, 2% Purified Egg Lecithin
[23] = crude emulsion, SBO 10%, % Purified Soy Lecithin
[24] = crude emulsion, SBO 20%, 1% Purified Egg Lecithin
[25] = crude emulsion, SBO 20%, 1% Purified Soy Lecithin
[26] = crude emulsion, SBO 20%, 2% Purified Egg Lecithin
[27] = crude emulsion, SBO 20%, % Purified Soy Lecithin
[28] = crude emulsion, STG 5%, 1% Purified Egg Lecithin
[29] = crude emulsion, STG 5%, 2% Purified Egg Lecithin
[30] = crude emulsion, STG 10%, 1% Purified Egg Lecithin
[31] = crude emulsion, STG 10%, 2% Purified Egg Lecithin
[32] = crude emulsion, STG 20%, 1% Purified Egg Lecithin
[33] = crude emulsion, STG 20%, 2% Purified Egg Lecithin

SMILES: C[C@@H](NCCCc1cccc(C(F)(F)F)c1)c1cccc2ccccc12 [Cinacalcet, N-(1-(R)-(1-naphthyl)ethyl]-3-[3-(trifluoromethyl)phenyl]-1-aminopropane]
- droplet charge of emulsion ([1]; pH of about 9, 1 mM dibasic phosphate): net negative charge
- pH range in which emulsion achieves charge neutrality ([1]; titration in 1 mM dibasic phosphate): 7-7.5
- D(4, 3) [2, 4]: 0.39 µm
- pH [2, 4]: 8.58
- D(4, 3) [2, 5]: 0.36 µm
- pH [2, 5]: 9.12
- D(4, 3) [2, 6]: 0.35 µm
- pH [2, 6]: 8.39
- D(4, 3) [2, 7]: 0.32 µm
- PH [2, 7]: 8.97
- D(4, 3) [2, 8]: 0.53 µm
- pH [2, 8]: 8.61
- D(4, 3) [2, 9]: 0.21 µm
- pH [2, 9]: 9.09
- D(4, 3) [2, 10]: 0.4 µm
- pH [2, 10]: 8.29
- D(4, 3) [2, 11]: 0.44 µm
- PH [2, 11]: 8.99
- D(4, 3) [2, 12]: 0.57 µm
- pH [2, 12]: 8.41
- D(4, 3) [2, 13]: 0.47 µm
- pH [2, 13]: 8.81
- D(4, 3) [2, 14]: 0.42 µm
- pH [2, 14]: 8.23
- D(4, 3) [2, 15]: 0.31 µm
- PH [2, 15]: 8.95
- D(4, 3) [2, 16]: 1.07 µm
- pH [2, 16]: 8.81
- D(4, 3) [2, 17]: 1.3 µm
- pH [2, 17]: 8.94
- D(4, 3) [2, 18]: 0.77 µm
- pH [2, 18]: 8.53
- D(4, 3) [2, 19]: 0.81 µm
- PH [2, 19]: 8.99
- D(4, 3) [2, 20]: 0.65 µm
- pH [2, 20]: 8.80
- D(4, 3) [2, 21]: 0.98 µm
- pH [2, 21]: 8.86
- D(4, 3) [2, 22]: 0.68 µm
- pH [2, 22]: 8.46
- D(4, 3) [2, 23]: 0.4 µm
- PH [2, 23]: 8.91
- D(4, 3) [2, 24]: 1.42 µm
- pH [2, 24]: 8.62
- D(4, 3) [2, 25]: 1.4 µm
- pH [2, 25]: 8.73
- D(4, 3) [2, 26]: 1.06 µm
- pH [2, 26]: 8.39
- D(4, 3) [2, 27]: 0.49 µm
- PH [2, 27]: 8.82
- D(4, 3) [2, 28]: 0.72 µm
- pH [2, 28]: 8.55
- pH ([2]; crude emulsion, STG 5%, 1% Purified Soy Lecithin): 9.09
- D(4, 3) [2, 29]: 0.52 µm
- pH [2, 29]: 8.46
- PH ([2]; crude emulsion, STG 5%, % Purified Soy Lecithin): 9.04
- D(4, 3) [2, 30]: 1.23 µm
- pH [2, 30]: 8.71
- pH ([2]; crude emulsion, STG 10%, 1% Purified Soy Lecithin): 9.00
- D(4, 3) [2, 31]: 0.81 µm
- pH [2, 31]: 8.37
- PH ([2]; crude emulsion, STG 10%, % Purified Soy Lecithin): 9.01
- D(4, 3) [2, 32]: 0.84 µm
- pH [2, 32]: 8.52
- pH ([2]; crude emulsion, STG 20%, 1% Purified Soy Lecithin): 8.99
- D(4, 3) [2, 33]: 1.18 µm
- pH [2, 33]: 8.28
- PH ([2]; crude emulsion, STG 20%, % Purified Soy Lecithin): 9.07
- D(4, 3) ([2]; emulsion, STG 5%, 1% Purified Soy Lecithin, after a single autoclaving cycle): 0.40^a
- D(4, 3) ([2]; emulsion, STG 5%, % Purified Soy Lecithin, after a single autoclaving cycle): 0.34^a
- D(4, 3) ([2]; emulsion, STG 10%, 1% Purified Soy Lecithin, after a single autoclaving cycle): 0.73^a
- D(4, 3) ([2]; emulsion, STG 10%, % Purified Soy Lecithin, after a single autoclaving cycle): 0.41^a
- D(4, 3) ([2]; emulsion, STG 20%, % Purified Soy Lecithin, after a single autoclaving cycle): 0.46^a
- changes in particle size ([3]; 2 years at 5° C. and 25° C.): No significant changes
- cinacalcet assay and impurity levels ([3]; 2 years at 5° C. and 25° C.): within specifications
- cinacalcet assay and impurity levels ([3]; 9 months at 40° C.): within specifications
- changes in particle size ([3]; 18 months at 40° C.): No significant changes
